In the NIST ThermoML archive (doi:10.1021/je0602519):

Experiment: xn = mol fraction of the nth substance listed
Settings: 101 kPa, Liquid; for speed of sound: Frequency=2 MHz, Linear variable-path acoustic interferometer; for mass density: Pycnometric method

CCCCCCCCCCO [decan-1-ol] + Cc1ccccc1
Settings | mass density, 303.15 K [kg/m3] | mass density, 313.15 K [kg/m3] | speed of sound, 303.15 K [m/s] | speed of sound, 313.15 K [m/s] | viscosity, 303.15 K [mPa·s] | viscosity, 313.15 K [mPa·s]
x2 = 0 | 822.87 | 815.97 | 1366 | 1334 | 9.716 | 6.82
x2 = 0.0507 | 823.76 | 816.74 | 1361 | 1327 | 8.474 | 6.06
x2 = 0.1015 | 824.73 | 817.58 | 1355 | 1320 | 7.424 | 5.343
x2 = 0.1473 | 825.62 | 818.34 | 1349 | 1314 | 6.635 | 4.771
x2 = 0.2091 | 826.88 | 819.45 | 1340 | 1305 | 5.658 | 4.059
x2 = 0.2577 | 827.9 | 820.38 | 1333 | 1297 | 4.962 | 3.552
x2 = 0.3006 | 828.84 | 821.2 | 1327 | 1292 | 4.458 | 3.112
x2 = 0.3496 | 829.95 | 822.24 | 1318 | 1283 | 3.848 | 2.71
x2 = 0.4028 | 831.22 | 823.38 | 1311 | 1275 | 3.32 | 2.263
x2 = 0.4516 | 832.48 | 824.49 | 1303 | 1268 | 2.843 | 1.903
x2 = 0.4989 | 833.77 | 825.69 | 1295 | 1261 | 2.499 | 1.678
x2 = 0.5497 | 835.29 | 827.06 | 1290 | 1255 | 2.152 | 1.47
x2 = 0.6009 | 836.92 | 828.57 | 1285 | 1249 | 1.883 | 1.305
x2 = 0.6498 | 838.61 | 830.11 | 1280 | 1245 | 1.594 | 1.162
x2 = 0.7065 | 840.8 | 832.12 | 1275 | 1240 | 1.414 | 0.994
x2 = 0.7524 | 842.7 | 833.86 | 1274 | 1239 | 1.15 | 0.905
x2 = 0.8069 | 845.15 | 836.21 | 1273 | 1239 | 1.021 | 0.79
x2 = 0.8472 | 847.18 | 838.04 | 1274 | 1240 | 0.887 | 0.732
x2 = 0.9063 | 850.54 | 841.18 | 1278 | 1243 | 0.75 | 0.64
x2 = 0.9489 | 853.12 | 843.58 | 1282 | 1248 | 0.599 | 0.565

CCCCCCCO [heptan-1-ol] + Cc1ccccc1
Settings | mass density, 303.15 K [kg/m3] | mass density, 313.15 K [kg/m3] | speed of sound, 303.15 K [m/s] | speed of sound, 313.15 K [m/s] | viscosity, 303.15 K [mPa·s] | viscosity, 313.15 K [mPa·s]
x2 = 0 | 814.89 | 807.68 | 1313 | 1279 | 5.048 | 3.712
x2 = 0.0525 | 816.52 | 809.17 | 1310 | 1274 | 4.404 | 3.362
x2 = 0.1014 | 818.06 | 810.59 | 1307 | 1271 | 3.859 | 3.074
x2 = 0.1518 | 819.67 | 812.07 | 1304 | 1267 | 3.4 | 2.77
x2 = 0.1859 | 820.78 | 813.13 | 1301 | 1263 | 3.154 | 2.55
x2 = 0.2489 | 822.84 | 815.02 | 1296 | 1258 | 2.645 | 2.226
x2 = 0.3011 | 824.61 | 816.69 | 1291 | 1251 | 2.314 | 1.986
x2 = 0.3504 | 826.34 | 818.24 | 1286 | 1247 | 2.042 | 1.77
x2 = 0.4006 | 828.07 | 819.87 | 1282 | 1242 | 1.796 | 1.583
x2 = 0.4494 | 829.88 | 821.57 | 1278 | 1237 | 1.594 | 1.436
x2 = 0.5003 | 831.83 | 823.35 | 1274 | 1233 | 1.399 | 1.271
x2 = 0.5486 | 833.72 | 825.14 | 1271 | 1230 | 1.25 | 1.144
x2 = 0.5903 | 835.44 | 826.72 | 1269 | 1227 | 1.113 | 1.069
x2 = 0.6493 | 837.95 | 829.09 | 1266 | 1226 | 0.982 | 0.965
x2 = 0.7011 | 840.28 | 831.32 | 1266 | 1225 | 0.888 | 0.84
x2 = 0.752 | 842.69 | 833.57 | 1267 | 1226 | 0.776 | 0.772
x2 = 0.8041 | 845.27 | 836.02 | 1268 | 1228 | 0.673 | 0.682
x2 = 0.8495 | 847.69 | 838.32 | 1272 | 1232 | 0.635 | 0.639
x2 = 0.9009 | 850.55 | 841.07 | 1276 | 1239 | 0.588 | 0.573
x2 = 0.9487 | 853.39 | 843.85 | 1282 | 1245 | 0.546 | 0.528

CCCCCCCCO [octan-1-ol] + Cc1ccccc1
Settings | mass density, 303.15 K [kg/m3] | mass density, 313.15 K [kg/m3] | speed of sound, 303.15 K [m/s] | speed of sound, 313.15 K [m/s] | viscosity, 303.15 K [mPa·s] | viscosity, 313.15 K [mPa·s]
x2 = 0 | 818.38 | 811.05 | 1334 | 1304 | 6.433 | 4.603
x2 = 0.0495 | 819.62 | 812.14 | 1329 | 1300 | 5.63 | 4.13
x2 = 0.1104 | 821.19 | 813.56 | 1325 | 1293 | 4.775 | 3.645
x2 = 0.1513 | 822.25 | 814.55 | 1321 | 1287 | 4.281 | 3.261
x2 = 0.1999 | 823.55 | 815.73 | 1316 | 1282 | 3.788 | 2.832
x2 = 0.2517 | 824.98 | 817.04 | 1310 | 1274 | 3.28 | 2.545
x2 = 0.2997 | 826.34 | 818.29 | 1304 | 1268 | 2.952 | 2.218
x2 = 0.356 | 828.02 | 819.85 | 1297 | 1262 | 2.504 | 1.944
x2 = 0.3998 | 829.32 | 821.03 | 1291 | 1255 | 2.229 | 1.715
x2 = 0.4506 | 830.99 | 822.56 | 1286 | 1250 | 1.974 | 1.518
x2 = 0.5001 | 832.63 | 824.08 | 1281 | 1242 | 1.758 | 1.37
x2 = 0.5513 | 834.46 | 825.77 | 1276 | 1238 | 1.541 | 1.175
x2 = 0.6014 | 836.31 | 827.51 | 1272 | 1234 | 1.35 | 1.084
x2 = 0.6495 | 838.22 | 829.3 | 1270 | 1231 | 1.214 | 0.935
x2 = 0.6997 | 840.36 | 831.29 | 1268 | 1228 | 1.065 | 0.866
x2 = 0.7569 | 842.9 | 833.69 | 1267 | 1228 | 0.931 | 0.754
x2 = 0.8012 | 845.02 | 835.74 | 1268 | 1229 | 0.819 | 0.703
x2 = 0.8527 | 847.7 | 838.28 | 1269 | 1232 | 0.733 | 0.636
x2 = 0.9 | 850.32 | 840.85 | 1273 | 1236 | 0.646 | 0.558
x2 = 0.954 | 853.6 | 844 | 1280 | 1245 | 0.576 | 0.526
